“Also recorded” adds a separate entry of the source. Oligonucleotides are written 5' to 3', each unit as a sugar letter and its base; * is a phosphorothioate linkage, no mark a phosphodiester; rarer units and linkages stand in square brackets, end groups in braces. Plain capitals give the bases only. d = 2'-deoxy (DNA)

Common to all, as to format: cell-based, human
One data set concerns MSN cells. Briefly: Propidium iodide staining, nuclear morphology of MSN cells. As to conditions: for nuclear morphology by PI staining: 600 nM (FIG. 9); for percentage of cells with abnormal nuclear morphology by PI staining: 600 nM alone (FIG. 9G). The method, then: Propidium iodide (PI) staining and phase microscopy were used to assess the nuclear morphology of the survivin antisense oligonucleotide-treated MSN cells. MSN cells were treated with lipofectin (FIG. 9A), or 600 nM mismatch oligonucleotide 1132 (FIG. 9B) or survivin antisense oligonucleotide 904 (FIGS. 9C and 9E) or 906 (FIG. 9D), and stained with PI. To assess the effect on nuclear morphology of co-administration of survivin antisense oligonucleotide and the caspases inhibitor zVAD-fmk, MSN cells were treated with 600 nM survivin antisense oligonucleotide 904, 906, or mismatch oligonucleotide 1132 alone, or in the presence of 20 μM zVAD-fmk, and stained with PI (FIG. 9G).
(§1) Survivin antisense oligonucleotide-treated cells were fixed with 4% paraformaldehyde for 30 min at room temperature, washed with 1×TBS, permeabilized with 0.1% Triton X-100 for 30 min and treated with 10 μg/ml DNasc free RNase A (Sigma) for 60 min. Nuclei were stained with 200 μg /ml PI for 30 min at 4° C. and washed twice with 1×TBS. Nuclear morphology was assessed on an inverted Olympus 1×70 fluorescence microscope equipped with phase and epifluorescence optics. For each treatment about 600 nuclei were scored as normal, condensed (apoptotic), or abnormal (macronuclei, multilobed) on 15 random, 40×objective fields in duplicate. Quantification results are mean±SEM obtained from two independent experiments performed in duplicate.

The subject of data set [1] is TC620 cells. Briefly: Propidium iodide staining, nuclear morphology of TC620 cells. To be noted: for nuclear morphology by PI staining: 600 nM (FIG. 7); for number of cells in metaphase, with zVAD-fmk compared with oligonucleotide alone: 600 nM plus zVAD-fmk (FIG. 8B). On the procedure:
Propidium iodide (PI) staining was performed to investigate changes in nuclear morphology caused by treatment of TC620 cells with survivin antisense oligonucleotides. […] TC620 cells were treated with lipofectin (FIG. 7A), or 600 nM mismatch oligonucleotide 1132 (FIG. 7B), survivin antisense oligonucleotide 904 (FIGS. 7C and 7E), or 906 (FIG. 7D), and stained with PI. Quantification results for TC620 cells treated with 600 nM survivin antisense oligonucleotide 904, 906, or mismatch oligonucleotide 1132, alone or in the presence of zVAD-fmk, are shown in FIGS. 8A-B. Cells in metaphase were identified as those with chromosomes aligned on the metaphase plate.
as §1

The test system of data set [2] is TC620 cells. Briefly: Trypan blue assay (cell death) in TC620 cells. On the procedure: At 100 nM, 200 nM, and 400 nM, the percentage of dead cells was 28%, 36%, and 62%, respectively. The percentages of Trypan blue-positive cells treated with 200 nM (8%) and 400 nM (7.5%) mismatched oligonucleotide 1132 were similar to the lipofectin control (6%). Cells were treated with lipofectin, survivin antisense oligonucleotide 904 at 100, 200, or 400 nM, or mismatched oligonucleotide 1132 at 200 nM or 400 nM concentrations. Cells were harvested 48 hours after the treatment and stained with 0.04% Trypan blue as described for FIG. 4.
To further examine whether cell death induced by treatment of TC620 cells with survivin antisense oligonucleotides occurs via a caspase-dependent mechanism, another experiment was performed to investigate the effect of a caspase inhibitor on cell death. […] TC620 cells were treated with lipofectin or 600 nM survivin antisense oligonucleotide 904, 906, or mismatch oligonucleotide 1132 alone, or co-treated with 20 μM zVAD-fmk.
Cells were harvested 48 hours after survivin antisense treatment, stained with 0.04% Trypan blue (GIBCO), and counted on a hemocytometer. The number of Trypan blue positive cells relative to the total number of cells in each field was obtained and the data were expressed as a percentage of dead cells relative to the total cell number. Individual experiments were performed in triplicate. MSN cell studies were performed three times, while studies in TC620 cells were performed once.

In the next data set the test system is survivin. Briefly: Western blot of survivin protein in antisense oligonucleotide-treated MSN cells. As to conditions: for decrease in survivin protein levels relative to lipofectin-treated control, normalized to β-tubulin / percentage of survivin protein over β-tubulin relative to lipofectin: 400 nM, 48 hours (FIG. 3A); for percentage of survivin protein over β-tubulin relative to lipofectin / effect on survivin protein levels: lipofectin; for effect on survivin protein levels: 48 hours. The method, then:
Six survivin (900-906) antisense oligonucleotides were administered at 400 nM to MSN cells in the presence of lipofectin for 48 hours. Each lane has 100 μg of protein. The blots were cut at 32.9 kD and the bottom incubated with the survivin polyclonal antibody (1:500), while the top was incubated with β-tubulin.
Since survivin antisense oligonucleotide 903 decreased survivin protein levels by 76%, the dose dependency of 903 on survivin protein levels was further studied. As expected, mismatched oligonucleotides had no effect on the relative abundance of survivin. […] In the presence of lipofectin, survivin antisense oligonucleotide 903 was administered to MSN cells for 48 hours at 50 nM to 200 nM. Total protein (100 μg) was loaded/lane.
Survivin antisense oligonucleotide 904 decreased survivin protein levels by 46% and 60% while survivin levels were unchanged in cells incubated with the mismatched oligonucleotide 1132. MSN cells were treated with lipofectin, survivin antisense oligonucleotide 904 or 908 at 400 nM and 600 nM, or mismatched oligonucleotide 1132 at 400 nM concentrations. Total protein (100 μg) was separated by SDS polyacrylamide gel electrophoresis and transferred to a nitrocellulose support. The blots were cut at 32.9 kD and the bottom blots incubated with the survivin polyclonal antibody (1:500), while the top blots were incubated with tubulin.
The antisense oligonucleotides were synthesized on solid support with an automated DNA synthesizer using β-cyanoethylphosphoramidite chemistry. In order to prevent rapid degradation of the antisense oligonucleotides by cellular nucleases, oxidation was carried out with Becauge sulfurizing agent to obtain phosphorothioate backbone modified oligonucleotides. After their synthesis, the oligonucleotides were released from the solid support, deprotected, purified by reverse-phase HPLC, desalted, filtered and lyophilized. The purity and sequence integrity of oligonucleotides was ascertained by capillary gel electrophoresis and MALDI-TOF mass spectral analysis and the concentrations measured at […]. Cells were grown in 100 mm dishes and oligonucleotide treatment was performed on subconfluent cultures in the presence of Lipofectin (GIBCO) according to the manufacturer. Forty-eight hours following treatment, total protein homogenates were isolated.
Ten micrograms of the fusion protein was incubated with the survivin antibody (1:500) at 4° C. for 2 hours to overnight prior to immunoblotting. […] Blots were cut at 32.9 kD, and the bottom part of the blots were incubated with the survivin antibody overnight at 4° C. and visualized by enhanced chemiluminescence (Enhanced Chemiluminescence, Amersham, Arlington Heights, Ill.) as previously described (Sharma et al. Cell. Motil. Cytoskeleton 27:234-247).
(In general: A western blot detects proteins with antibodies after separation by electrophoresis.)

The mark [3] stands for this setting: 600 nM co-treated with 20 μM zVAD-fmk (FIG. 6B).

In the case of “d(TCTTGGCTCTTTCTCTGTCC) (antisense dT*dC*dT*dT*dG*dG*dC*dT*dC*dT*dT*dT*dC*dT*dC*dT*dG*dT*dC*dC) [Oligo 904, 20-mer phosphorothioate survivin antisense oligonucleotide, complementary to survivin mRNA 5248-5267]”, the results for the “nuclear morphology by PI staining” value in the data set with MSN cells and in the data set on TC620 cells [1] were “abnormal multiple multilobed nuclei” and “apoptotic nuclei; also recorded: abnormal macronuclei that are multilobed”, respectively. Besides, the “percentage of cells with abnormal nuclear morphology by PI staining” value in the data set with MSN cells amounted to 27%. Besides, in the data set on TC620 cells [1], the “number of cells in metaphase, with zVAD-fmk compared with oligonucleotide alone” value (“number … compared with oligonucleotide alone” for short) is “approximate two-fold increase”. In addition, the “percentage of dead (Trypan blue-positive) cells” value (shortened to “percentage of dead”) with TC620 cells [2] (100 nM, 48 hours (FIG. 6A)) is recorded as 28%; with TC620 cells [2] (200 nM, 48 hours (FIG. 6A)), 36%; with TC620 cells [2] (400 nM, 48 hours (FIG. 6A)), 62%. For the same substance, the “percentage of Trypan blue positive cells” value with TC620 cells [2] (600 nM alone (FIG. 6B)) came to 70%; in the data set with TC620 cells [2] (setting [3]), 11%. Further, the “cell death, Trypan blue positive cells” value in the data set with TC620 cells [2] (48 hours (FIG. 6A)) is recorded as “concentration-dependent increase in Trypan blue-positive (dead) cells; also recorded: dose-dependent increase in cell death”. Besides, the “decrease in survivin protein levels” value in the data set on survivin (400 nM (FIG. 4C)) came to 46%; in the data set with survivin (600 nM (FIG. 4C)) it was 60%. Also, the “decrease in survivin protein levels relative to lipofectin-treated control, normalized to β-tubulin” value in the data set on survivin is listed as 64%. The “percentage of survivin protein over β-tubulin relative to lipofectin” value in the data set on survivin came out at 35.7%. Besides, the “effect on survivin protein levels” value with survivin was “effective in reducing survivin protein levels in a concentration-dependent manner”.

In the case of “d(GCTTCCCAGTCACATCCTGT) (antisense dG*dC*dT*dT*dC*dC*dC*dA*dG*dT*dC*dA*dC*dA*dT*dC*dC*dT*dG*dT) [Oligo 906, 20-mer phosphorothioate survivin antisense oligonucleotide, complementary to survivin mRNA 11897-11916]”, in the data set on MSN cells, the “nuclear morphology by PI staining” value is recorded as “abnormal multiple multilobed nuclei” and the “percentage of cells with abnormal nuclear morphology by PI staining” value stood at 31%. Further, in the data set on TC620 cells [1], the “nuclear morphology by PI staining” value is “abnormal macronuclei that are multilobed” and the “number … compared with oligonucleotide alone” value is given as “approximate two-fold increase”. Also, the “percentage of Trypan blue positive cells” value in the data set on TC620 cells [2] (600 nM alone (FIG. 6B)) worked out at 67%. Also, in the data set on TC620 cells [2] (setting [3]), the “percentage of Trypan blue positive cells” value was determined as 15%. Moreover, in the data set with survivin, the “decrease in survivin protein levels relative to lipofectin-treated control, normalized to β-tubulin” value is recorded as 73% and the “percentage of survivin protein over β-tubulin relative to lipofectin” value is 26.9%.

For the substance “d(GCACCTAGTCTCCCTGCACC) (DNA, all phosphorothioate, methylation of C not given here) [Oligo 1132, mismatched phosphorothioate control oligonucleotide, not complementary to survivin mRNA, reference compound]”, the “nuclear morphology by PI staining” value in the data set on MSN cells was “normal nuclear morphology”. Further, in the data set with TC620 cells [1], the “nuclear morphology by PI staining” value was “normal nuclear morphology” and the “number … compared with oligonucleotide alone” value was “did not affect the number of cells in metaphase”. Also, in the data set on TC620 cells [1] (600 nM (FIG. 8A)), the “percentage of apoptotic cells (chromatin fragmentation, apoptotic bodies) by PI staining” value was determined as 2% and the “percentage of cells with abnormal (multiple multilobed) nuclei by PI staining” value worked out at 1%. Besides, the “percentage of dead” value with TC620 cells [2] (200 nM, 48 hours (FIG. 6A)) was found to be 8%. Moreover, the “percentage of dead” value in the data set with TC620 cells [2] (400 nM, 48 hours (FIG. 6A)) amounted to 7.5%. In the data set with survivin, the “effect on survivin protein levels” value is listed as “had no effect; also recorded: did not alter survivin protein levels”.

For the origin of these results see US20030125287A1, “Antisense oligonucleotides and methods to induce tumor cell death” (Hybridon, Inc., priority 2001, published 2003).
